Assay results taken from PubChem BioAssay AID1794812.
Records with an inconclusive call do not appear.

Target: Excitatory amino acid transporter 3 (Homo sapiens) (UniProt P43005)
Test: EAAT3 transporter activation by amino acid substrates – membrane potential dye, HEK-293 overexpressing cells, dose response (AID 1794812)
Conditions: HEK-293 SLC1A1 OE, FLIPR membrane potential dye

Excitatory amino acid transporter 3 (Homo sapiens), sequence (P43005 whole entry, looked up): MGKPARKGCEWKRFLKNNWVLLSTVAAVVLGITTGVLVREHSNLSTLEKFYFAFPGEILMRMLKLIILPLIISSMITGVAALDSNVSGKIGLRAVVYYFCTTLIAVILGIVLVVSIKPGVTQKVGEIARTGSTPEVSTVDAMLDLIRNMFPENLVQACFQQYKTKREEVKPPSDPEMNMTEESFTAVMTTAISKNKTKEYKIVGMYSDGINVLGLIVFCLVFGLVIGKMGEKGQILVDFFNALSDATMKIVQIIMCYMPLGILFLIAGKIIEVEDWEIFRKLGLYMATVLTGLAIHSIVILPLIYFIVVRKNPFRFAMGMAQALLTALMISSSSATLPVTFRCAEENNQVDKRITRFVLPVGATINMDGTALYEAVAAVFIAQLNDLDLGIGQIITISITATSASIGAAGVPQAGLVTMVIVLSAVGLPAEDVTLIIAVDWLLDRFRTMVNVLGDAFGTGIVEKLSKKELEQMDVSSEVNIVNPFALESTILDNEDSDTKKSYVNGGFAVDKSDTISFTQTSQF

EC50: 161 µM
SMILES: N[C@@H](CS)C(=O)O
